Results as given in patent US20250188480A1, “AGENT FOR ENHANCING PRODUCTION OF VIRAL VECTOR AND METHOD FOR PRODUCING VIRAL VECTOR” (priority 2022, published 2025).
“Also recorded” adds a separate entry of the source.

Tests used:
[1] = system: HEK293 cells producing rAAV1; assay: Evaluation of AAV vector-producing ability by treatment with chemical substance (virus titer by qPCR); assay type: cell-based, human; details: for effects of enhancing the amount of production of AAV vectors (v.g.): HEK293 cells, serum-free E-MEM supplemented with the substance at various concentrations, culture for 3 days, vs untreated control
Description: The cells of the immortalized cell line derived from the human embryonic kidney (HEK293 cells) purchased from ATCC were cultured in E-MEM supplemented with 10% fetal bovine serum, penicillin, and streptomycin at 37° C. in the presence of 5% CO2.
The recombinant adeno-associated virus 1 (rAAV1) was prepared with the use of 3 types of plasmids: pAAV-ZsGreen1 (TaKaRa Bio), pAAV2/1, and pHelper. A mixture of 3 types of plasmids for preparation of rAAV1 was adjusted to bring the mixing ratio of DNA to Polyethylenimine Max (PEI: Polysciences) (DNA: PEI) to 1:2 in OPTI-MEM, and the reaction was allowed to proceed at room temperature for 15 minutes. After 90% or higher confluent HEK293 cells were transfected with E-MEM supplemented with 10% FBS for 6 hours, culture was performed in serum-free E-MEM to prepare the AAV type 1 vector.
Genome DNA of rAAV1 was extracted to measure the virus titer. Specifically, the culture supernatant was collected and treated with benzonase at 37° C. for 1 hour, and the viral genome DNA was extracted and purified using the DNeasy Blood & Tissue kit (QIAGEN). The virus titer was measured by real-time PCR in triplicate. qPCR was performed using primers targeting Zs-Green 1.
The virus titers achieved with the use of the chemical substances were compared with the virus titer of the control cells treated with serum-free E-MEM not supplemented with chemical substances.

HEK293 cells = details: treated for 5 days; HEK293 cells transduced at 1×10^5 v.g./cell, green fluorescence 3 days thereafter, vs vector without treatment

With `N.N.[Cl][Pt][Cl]` [Cisplatin] as the compound, how does the “effects of enhancing the amount of production of AAV vectors (v.g.)” value (“effects” for short) [1] read?
The value was “has effects of enhancing the amount of production of AAV vectors; also recorded: effects of enhancing production of rAAV vectors can be achieved”.

For `[NH2][Pt]1([NH2])[O]CC(=O)[O]1` [Nedaplatin], which “effects” value [1] is on record?
The value was “has effects of enhancing the amount of production of AAV vectors; also recorded: effects of enhancing production of rAAV vectors can be achieved”.

`[NH3+][Pt-2]1([NH3+])[O]C(=O)C2(CCC2)C(=O)[O]1` [Carboplatin] was tested. Which “infectious ability of the rAAV vector produced by treatment” value (HEK293 cells) did it give?
Its value is “retains the infectious ability equivalent to that of the AAV vector prepared without treatment”.

What about the “effects” value [1] of the same compound?
Its value is “has effects of enhancing the amount of production of AAV vectors; also recorded: effects of enhancing production of rAAV vectors can be achieved”.

What about the “amount of production of AAV vectors (v.g.) with the elapse of time” value ([1]; time after initiation of vector production, observed for 4 to 7 days) of the same compound?
Its value is “increasing with the elapse of time”.
